From ChEMBL document CHEMBL3872274, “Synthesis and immunological evaluation of a low molecular weight saccharide with TLR-4 agonist activity” (Bioorg Med Chem, 2017) come the findings set out here.

Series [1] addresses T1, Toll-like receptor 4 (Mus musculus) (UniProt Q9QUK6).
T1 sequence (whole entry): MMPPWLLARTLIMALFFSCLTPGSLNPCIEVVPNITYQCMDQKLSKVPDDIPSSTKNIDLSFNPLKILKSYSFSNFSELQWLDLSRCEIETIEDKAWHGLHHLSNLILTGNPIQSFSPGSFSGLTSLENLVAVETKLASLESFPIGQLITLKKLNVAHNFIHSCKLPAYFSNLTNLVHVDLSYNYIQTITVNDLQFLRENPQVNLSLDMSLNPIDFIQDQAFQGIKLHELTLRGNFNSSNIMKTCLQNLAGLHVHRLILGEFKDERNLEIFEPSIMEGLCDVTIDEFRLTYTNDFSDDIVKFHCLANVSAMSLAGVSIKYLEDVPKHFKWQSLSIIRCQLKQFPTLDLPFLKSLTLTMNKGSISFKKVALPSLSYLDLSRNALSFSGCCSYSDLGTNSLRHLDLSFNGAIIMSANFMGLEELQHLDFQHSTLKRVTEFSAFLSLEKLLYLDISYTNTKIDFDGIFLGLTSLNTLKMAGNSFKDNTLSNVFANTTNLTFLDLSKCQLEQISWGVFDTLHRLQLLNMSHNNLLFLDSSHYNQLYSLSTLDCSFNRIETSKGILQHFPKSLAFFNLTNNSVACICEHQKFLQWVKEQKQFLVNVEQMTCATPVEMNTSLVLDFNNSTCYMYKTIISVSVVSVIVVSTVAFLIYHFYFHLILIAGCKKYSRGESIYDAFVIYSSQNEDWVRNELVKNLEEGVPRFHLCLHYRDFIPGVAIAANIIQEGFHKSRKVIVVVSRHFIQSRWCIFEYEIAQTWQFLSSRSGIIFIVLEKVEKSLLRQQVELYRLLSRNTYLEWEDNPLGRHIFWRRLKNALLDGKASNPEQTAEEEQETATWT
Description: Binding affinity to TLR-4 in C57BL/6 mouse peritoneal exudate macrophages assessed as cells binding to PE conjugated anti-TLR-4 monoclonal antibody at 1 ug/ml preincubated for 4 hrs followed by antibody addition by flow cytometry (reference value: 50.8%).

Series [2] addresses T1, Toll-like receptor 4 (Mus musculus). Nature of the series: Agonist activity at TLR-4 in mouse RAW264.7 cells assessed as increase in IL-6 production at 1 to 5 ug/ml measured after 48 hrs by ELISA. The series is classed as cell-based.
For series [3] the target is unchanged. Description: Agonist activity at TLR-4 in C57BL/6 mouse peritoneal exudate macrophages assessed as increase in IL-6 production at 1 to 5 ug/ml measured after 48 hrs by ELISA.
Series [4] has the same target. Description: Agonist activity at TLR-4 in mouse RAW264.7 cells assessed as increase in TNF-alpha production at 1 to 5 ug/ml measured within 2 hrs by ELISA. It is filed as cell-based.
Series [5] shares this target. Description: Agonist activity at TLR-4 in C57BL/6 mouse peritoneal exudate macrophages assessed as increase in TNF-alpha production at 1 to 5 ug/ml measured within 2 hrs by ELISA.
Series [6] has the same target. Nature of the series: Agonist activity at TLR-4 in C57BL/6 mouse peritoneal exudate macrophages assessed as increase in TNF-alpha production at 1 to 5 ug/ml up to 24 hrs post dose by ELISA relative to thiophenyl-2-O-acetyl-3-O-benzoyl-4,6-O-pyruvate-[…]-D-galactopyranose.
Series [7] shares this target. Description: Agonist activity at TLR4 in TLR-2 deficient C57BL/6 mouse peritoneal exudate macrophages assessed as induction of IL-6 production at 1 to 5 ug/ml measured after up to 48 hrs by ELISA.
For series [8] the target is unchanged. Nature of the series: Agonist activity at TLR-4 in TLR2 deficient C57BL/6 mouse peritoneal exudate macrophages assessed as increase in TNF-alpha production at 1 to 5 ug/ml measured after 2 to 24 hrs by ELISA.
The target is the same in series [9]. Description: Binding affinity to TLR-4 in C57BL/6 mouse peritoneal exudate macrophages assessed as cells binding to PE conjugated anti-TLR-4 monoclonal antibody at 5 ug/ml preincubated for 4 hrs followed by antibody addition by flow cytometry (reference value: 50.8%).
Series [10] has as its target Toll-like receptor 2 (Mus musculus) (UniProt Q9QUN7). Nature of the series: Binding affinity to TLR-2 in C57BL/6 mouse peritoneal exudate macrophages assessed as cells binding to PE conjugated anti-TLR-2 monoclonal antibody at 10 ug/ml preincubated for 4 hrs followed by antibody addition by flow cytometry (reference value: 30.8%).
Series [11] has as its target T1, Toll-like receptor 4 (Mus musculus). Nature of the series: Binding affinity to TLR-4 in C57BL/6 mouse peritoneal exudate macrophages assessed as cells binding to PE conjugated anti-TLR-4 monoclonal antibody at 10 ug/ml preincubated for 4 hrs followed by antibody addition by flow cytometry (reference value: 50.8%).
A short description of series [12]: Effect on adaptive immune system in mouse splenocytes assessed as polyclonal activation of T-lymphocytes. It is filed as cell-based. To be noted: splenocyte.
The nature of series [13]: Effect on adaptive immune system in mouse splenocytes assessed as polyclonal activation of B-lymphocytes. To be noted: splenocyte. The series is classed as cell-based.
In series [14] the target is T1, Toll-like receptor 4 (Mus musculus). Nature of the series: Binding affinity to TLR-4 in C57BL/6 mouse peritoneal exudate macrophages assessed as decrease in cells binding to PE conjugated anti-TLR-4 monoclonal antibody preincubated for 4 hrs followed by antibody addition by flow cytometry.
For series [15] the target is unchanged. Nature of the series: Agonist activity at TLR-4 in C57BL/6 mouse peritoneal exudate macrophages assessed as increase in IL-6 production at 1 to 5 ug/ml at 24 hrs post dose by ELISA relative to (Cyclohexyl-2-phthalimido-3,4,6-tri-O-acetyl-beta-D-glucopyranosyl)-2-O-acetyl-3-O-benzoyl-4,6-O-pyruvate-beta-D-galactopyranose.

The source made the active and inactive calls. The calls are words filed in the database; no cut-off is given here.

Sequence of Toll-like receptor 2 (Mus musculus) (Q9QUN7 whole entry): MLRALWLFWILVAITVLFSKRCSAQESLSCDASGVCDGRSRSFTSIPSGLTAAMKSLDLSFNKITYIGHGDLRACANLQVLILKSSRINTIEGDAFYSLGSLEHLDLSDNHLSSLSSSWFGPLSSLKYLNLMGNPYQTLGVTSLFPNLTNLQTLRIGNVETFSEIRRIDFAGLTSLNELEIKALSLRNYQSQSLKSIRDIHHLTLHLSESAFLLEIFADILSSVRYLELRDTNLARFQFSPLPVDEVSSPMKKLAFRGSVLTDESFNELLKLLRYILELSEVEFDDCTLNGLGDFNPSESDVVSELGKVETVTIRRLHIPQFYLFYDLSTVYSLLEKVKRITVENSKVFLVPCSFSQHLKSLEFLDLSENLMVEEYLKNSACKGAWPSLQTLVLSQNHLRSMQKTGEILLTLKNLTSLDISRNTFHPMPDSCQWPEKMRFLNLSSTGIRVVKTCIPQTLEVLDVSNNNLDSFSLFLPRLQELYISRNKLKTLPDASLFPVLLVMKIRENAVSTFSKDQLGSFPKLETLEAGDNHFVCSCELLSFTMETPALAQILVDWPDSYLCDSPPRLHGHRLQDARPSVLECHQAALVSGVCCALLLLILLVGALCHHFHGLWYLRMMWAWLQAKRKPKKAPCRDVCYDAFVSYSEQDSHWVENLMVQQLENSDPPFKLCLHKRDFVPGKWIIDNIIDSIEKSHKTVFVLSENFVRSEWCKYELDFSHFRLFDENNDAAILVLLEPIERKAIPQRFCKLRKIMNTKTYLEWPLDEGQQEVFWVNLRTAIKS

For the compound `COC(=O)C1(C)OC[C@H]2O[C@@H](OC3CCC(O[C@@H]4O[C@H](COC(C)=O)[C@@H](OC(C)=O)[C@H](OC(C)=O)[C@H]4N4C(=O)c5ccccc5C4=O)CC3)[C@H](OC(C)=O)[C@@H](OC(=O)c3ccccc3)[C@H]2O1` (stereo partly specified), the Activity in [1] is 45.2%; in series [6], 50%; in [9], 37.3%; in series [10] it was 33.4%; in [11], 24.3%; in [12] it was “Non-Toxic”. The Activity entry is “Non-Toxic” in [13] and “Dose-dependent effect” in series [14]. The result in series [2], in series [3], in series [4], in series [5], in series [7] and in [8] was Active.
Turning to `COC(=O)C1(C)OC[C@H]2O[C@@H](Sc3ccccc3)[C@H](OC(C)=O)[C@@H](OC(=O)c3ccccc3)[C@H]2O1` (stereo partly specified), the Activity in series [15] came to 50%.
As to `CCS[C@@H]1O[C@H](COC(C)=O)[C@@H](OC(C)=O)[C@H](OC(C)=O)[C@H]1N1C(=O)c2ccccc2C1=O`, in series [15], the Activity was determined as 50%.
